In patent US8058242B2, “Chimeric proteins with natriuretic activity” (The University of Queensland, priority 2004, dated 2011):
Positions of bridges follow the written chain, without caps; N, C: chain ends. Non-standard residues stand in square brackets, D forms with d. No end group written: not given here. pGlu = O=C1CC[C@@H](C(=O)O)N1

Legend:
[1] = test system: denuded aortic rings, GC A receptor; assay: Relaxation of noradrenaline constricted endothelium-denuded aortic rings (Example 11); set-up: species or system rat; conditions: GC-A mediated
Protocol: Male Sprague Dawley rats were killed and the descending thoracic aorta rapidly removed and flushed with physiological solution. After being cleared of adhering fat and connective tissue, 5 mm rings were mounted under 10 g resting tension, between two stainless steel hooks, in organ baths (37° C.) containing carbogenated (95% O2 and 5% CO2) physiological salt solution of the following composition (mM): NaCl, 118.4; NaHCO3, 25; glucose, 11; KCl, 4.7; MgSO4, 1.2; KH2PO4, 1.2 and CaCl2, 2.5. The lower hook was attached to a tissue holder and the upper hook to a force displacement transducer (Grass FTO3). Where indicated endothelial cells were removed by gentle rubbing of the intimal surface with a wire. To confirm the presence or absence of endothelial cells, tissues were precontracted with a sub-maximal concentration of phenylephrine (0.3 μM) and the response to acetylcholine (ACh, 10 μM) observed. Ach-induced relaxation greater than 80% of maximum indicated the presence of endothelium; whereas Ach-induced relaxation less than 10% indicated the absence of endothelium. Ring preparations under resting tension were conditioned by two contraction/relaxation cycles with 40 mM KCl, contracted by a third application of 40 mM KCl and then relaxed with different doses of the venom peptides. Responses were expressed as a percentage relaxation of the precontraction by KCl.
In addition to the peptides tested in example 3, a series of 13 analogs corresponding to the 2a, 2b and 2c grouping of peptides were examined for their ability to dilate noradrenaline constricted aortic rings. The degree of constriction was expressed as a percentage of the KCl induced constriction. The aortic rings were prepared in a manner similar to the method described in example 3. […]. In each case there were at least 3 separate aortic rings tested per peptide and all were denuded of endothelium to ensure responses were confined to the GC A receptor.

conscious rabbits = assay: Blood pressure and heart rate in conscious rabbits, intravenous infusion dose-response (Example 8); conditions: for recovery of MAP, in words: 2 hours after infusion; for MAP at final dose / Recovery (MAP) / Recovery Delta SED (MAP) / Treatment Effect, change of mean blood pressure during the infusion: Table 10B; for Recovery (MAP) / Recovery Delta SED (MAP): after a 2 hour recovery period; for Treatment Effect, change of mean blood pressure during the infusion: final dose, groups 2B and 2C
[2] = biological target: T1, Natriuretic Peptide Receptor-A (NPR-A) signaling in MDCK cells (Canis lupus familiaris, UniProt A0A8I3MHU3); type: cell-based, canine; conditions: stimulation of cGMP accumulation in MDCK cells
T1 sequence (A0A8I3MHU3 32-1060): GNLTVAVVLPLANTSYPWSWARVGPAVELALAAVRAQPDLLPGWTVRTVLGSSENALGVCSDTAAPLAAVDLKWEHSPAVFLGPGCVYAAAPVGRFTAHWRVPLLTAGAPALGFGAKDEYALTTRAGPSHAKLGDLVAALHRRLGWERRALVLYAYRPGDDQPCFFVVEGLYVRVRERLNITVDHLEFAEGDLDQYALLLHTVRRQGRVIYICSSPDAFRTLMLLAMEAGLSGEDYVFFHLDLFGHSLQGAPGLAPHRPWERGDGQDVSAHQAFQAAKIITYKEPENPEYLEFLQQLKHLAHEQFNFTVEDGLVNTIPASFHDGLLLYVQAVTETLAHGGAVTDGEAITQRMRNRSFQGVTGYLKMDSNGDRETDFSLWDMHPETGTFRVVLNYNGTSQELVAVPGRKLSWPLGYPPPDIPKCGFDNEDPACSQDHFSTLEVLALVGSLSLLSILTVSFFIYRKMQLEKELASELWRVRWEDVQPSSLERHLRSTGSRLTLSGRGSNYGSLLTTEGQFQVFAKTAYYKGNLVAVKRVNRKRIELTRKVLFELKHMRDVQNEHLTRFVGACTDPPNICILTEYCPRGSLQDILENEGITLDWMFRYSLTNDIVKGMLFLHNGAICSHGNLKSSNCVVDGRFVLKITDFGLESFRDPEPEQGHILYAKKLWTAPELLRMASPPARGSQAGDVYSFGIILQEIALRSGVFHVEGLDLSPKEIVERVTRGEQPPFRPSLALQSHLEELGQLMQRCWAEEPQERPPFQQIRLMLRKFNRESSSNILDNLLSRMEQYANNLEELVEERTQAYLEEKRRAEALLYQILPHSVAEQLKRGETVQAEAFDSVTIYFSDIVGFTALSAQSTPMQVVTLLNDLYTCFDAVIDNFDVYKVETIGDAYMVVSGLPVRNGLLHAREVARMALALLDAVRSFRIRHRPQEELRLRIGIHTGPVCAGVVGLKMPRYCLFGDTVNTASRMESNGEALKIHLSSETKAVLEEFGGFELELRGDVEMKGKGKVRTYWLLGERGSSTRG

Plasmin = biological target: T2, Plasmin (Homo sapiens, UniProt P00747); assay: Stability to enzymatic degradation by plasmin (Examples 7, 16); type: in vitro ADME; conditions: plasmin, 37° C.
T2 construct: with 500 ng Endopeptidase (NEP) or 10 μg Plasmin
Protocol: The incubation buffer contained 100 mM Tris/HCl and 150 mM NaCl and the pH was adjusted to 7.2-7.4. In each assay, 100 μl of peptide [500 μM] was incubated with 300 μl buffer (with 500 ng Endopeptidase (NEP) or 10 μg Plasmin) at 37° C. 50 μl aliquots were taken at times 5 min, 30 min, 60 min, 90 min, 180 min and 24 h. The reaction was quenched by heating to 100° C. for 4 min and the remaining peptide concentrations measured by RP-HPLC. Note that the levels of Plasmin required to degrade these peptides was several thousands time the levels present in human plasma.
The stability of TDT and was investigated using the same enzymatic degradation assays (NEP, plasmin, pepsin) disclosed in Example 7. […] It is also evident that the increased NEP stability cannot be explained by the length of the tail region alone as the NEP cleavage site residues at the N-terminal end of the loop region.

normal rats = assay: Hemodynamic parameters in normal anesthetized rats (Example 10)
[3] = test system: rats with chronic heart failure; assay: Rat model of chronic heart failure, left coronary artery occlusion, anesthetized (Example 10); conditions: HF rats

T2 sequence (P00747 97-580 partner limits assumed, species assumed): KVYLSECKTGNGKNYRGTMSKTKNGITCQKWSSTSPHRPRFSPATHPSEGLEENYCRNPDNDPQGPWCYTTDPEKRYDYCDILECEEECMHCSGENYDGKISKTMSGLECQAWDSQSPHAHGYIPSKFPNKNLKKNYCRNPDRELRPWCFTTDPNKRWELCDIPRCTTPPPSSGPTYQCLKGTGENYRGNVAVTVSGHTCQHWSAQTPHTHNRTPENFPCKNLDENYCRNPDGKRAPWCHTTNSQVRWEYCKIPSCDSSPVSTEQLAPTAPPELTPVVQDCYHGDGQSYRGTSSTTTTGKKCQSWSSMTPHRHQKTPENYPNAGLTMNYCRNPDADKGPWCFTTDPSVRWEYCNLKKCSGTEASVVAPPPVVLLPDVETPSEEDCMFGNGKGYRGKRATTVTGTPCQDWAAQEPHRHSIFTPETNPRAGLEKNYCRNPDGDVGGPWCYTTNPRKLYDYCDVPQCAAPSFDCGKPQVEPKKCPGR
T2 sequence (P00747 581-810 limits assumed, species assumed): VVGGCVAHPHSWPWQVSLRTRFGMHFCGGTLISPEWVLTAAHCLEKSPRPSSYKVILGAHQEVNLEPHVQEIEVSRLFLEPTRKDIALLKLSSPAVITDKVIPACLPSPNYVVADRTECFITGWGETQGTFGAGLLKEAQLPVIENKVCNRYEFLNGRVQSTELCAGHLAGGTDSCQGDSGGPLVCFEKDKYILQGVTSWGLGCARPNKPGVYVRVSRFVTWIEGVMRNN

SDSKISAGCFGFPLDRIGSVSGLGCNRIMQNPPKKFSGE (A portion of a natriuretic peptide) [TNPc A7S6]
Mean relaxation SEM of denuded aortic rings expressed as % of KCl response [1]: 43.1 ± 8.6%
recovery of MAP, in words (conscious rabbits): partially recovered
MAP at final dose (conscious rabbits): 56.3 mm Hg
Recovery (MAP) (conscious rabbits): 66.8 mm Hg
Recovery Delta SED (MAP) (conscious rabbits): 10.5 ± 3.1 mm Hg
Treatment Effect, change of mean blood pressure during the infusion (conscious rabbits): −12.9 mm Hg

CC[C@H](C)[C@@H]1NC(=O)[C@H](CCCNC(=N)N)NC(=O)[C@H](CC(=O)O)NC(=O)[C@H](CCSC)NC(=O)[C@H](CCCCN)NC(=O)[C@H](CCCNC(=N)N)NC(=O)CNC(=O)[C@H](Cc2ccccc2)NC(=O)[C@@H](NC(=O)CNC(=O)[C@H](CO)NC(=O)CNC(=O)[C@H](CCC(N)=O)NC(=O)[C@@H](NC(=O)[C@H](CCSC)NC(=O)[C@H](CCCCN)NC(=O)[C@@H]2CCCN2C(=O)[C@@H](N)CO)C(C)C)CSSC[C@@H](C(=O)N[C@@H](CCCCN)C(=O)N[C@H](C(=O)N[C@@H](CC(C)C)C(=O)N[C@@H](CCCNC(=N)N)C(=O)N[C@@H](CCCNC(=N)N)C(=O)N[C@@H](Cc2c[nH]cn2)C(=O)O)C(C)C)NC(=O)CNC(=O)[C@H](CC(C)C)NC(=O)CNC(=O)[C@H](CO)NC(=O)[C@H](CO)NC(=O)[C@H](CO)NC(=O)[C@H](CO)NC1=O [hBNP]
−Log10 EC50 (pEC50) ± Standard Error [2]: 9.165 ± 0.1039
EC50 ([2]; read-out: EC50 (M) ± Standard Error): 9.07e-10 M
half-life at 125 μM (Plasmin; plasmin in Tris/HCl-NaCl buffer, read-out: HalfLife in plasmin): 13.1 min
K (one phase exponential decay, best fit values) (Plasmin): 0.053
PLATEAU (one phase exponential decay, best fit values) (Plasmin): 0.03403
SPAN (one phase exponential decay, best fit values) (Plasmin): 0.9926
Blood Flow, mean change from control (normal rats; 50 pmol/kg/min, 30 min): -1.9 mL/min
Conductance, mean change from control (normal rats; 50 pmol/kg/min, 30 min): −1.1 ml/min/mmHg
Diastolic LVP, mean change from control (normal rats; 50 pmol/kg/min, 30 min): −0.1 mmHg
HCT, mean change from control (normal rats; 50 pmol/kg/min, 30 min): 1.0%
HR, mean change from control (normal rats; 50 pmol/kg/min, 30 min): −16.6 BPM
Mean BP, mean change from control (normal rats; 50 pmol/kg/min, 30 min): −6.4 mmHg
Urine Flow, mean change from control (normal rats; 50 pmol/kg/min, 30 min): 0.2 mL/h
Blood Flow, mean change from control (normal rats; 100 pmol/kg/min, 30 min): -2.6 mL/min
Conductance, mean change from control (normal rats; 100 pmol/kg/min, 30 min): −1.2 ml/min/mmHg
Diastolic LVP, mean change from control (normal rats; 100 pmol/kg/min, 30 min): 0.1 mmHg
HCT, mean change from control (normal rats; 100 pmol/kg/min, 30 min): 3.5%
HR, mean change from control (normal rats; 100 pmol/kg/min, 30 min): −5.3 BPM
Mean BP, mean change from control (normal rats; 100 pmol/kg/min, 30 min): −14.9 mmHg
Urine Flow, mean change from control (normal rats; 100 pmol/kg/min, 30 min): 0.7 mL/h
Blood Flow, mean change from control (normal rats; Recovery): -3.6 mL/min
Conductance, mean change from control (normal rats; Recovery): −1.3 ml/min/mmHg
Diastolic LVP, mean change from control (normal rats; Recovery): −0.2 mmHg
HCT, mean change from control (normal rats; Recovery): −0.3%
HR, mean change from control (normal rats; Recovery): 1.3 BPM
Mean BP, mean change from control (normal rats; Recovery): −14.1 mmHg
Urine Flow, mean change from control (normal rats; Recovery): 0.6 mL/h
Blood Flow, Average drug response SED (normal rats; average of the two doses): -2.2 ± 1.0 mL/min
Conductance, Average drug response SED (normal rats; average of the two doses): −1.1 ± 0.4 ml/min/mmHg
Diastolic LVP, Average drug response SED (normal rats; average of the two doses): 0.0 ± 0.3 mmHg
HCT, Average drug response SED (normal rats; average of the two doses): 2.2 ± 0.6%
HR, Average drug response SED (normal rats; average of the two doses): −10.9 ± 7.1 BPM
Mean BP, Average drug response SED (normal rats; average of the two doses): −10.7 ± 4.7 mmHg
Urine Flow, Average drug response SED (normal rats; average of the two doses): 0.5 ± 0.4 mL/h
Blood Flow, mean change from control ([3]; 50 pmol/kg/min, 30 min): -1.6 mL/min
Conductance, mean change from control ([3]; 50 pmol/kg/min, 30 min): −0.3 ml/min/mmHg
Diastolic LVP, mean change from control ([3]; 50 pmol/kg/min, 30 min): −0.7 mmHg
HCT, mean change from control ([3]; 50 pmol/kg/min, 30 min): 1.9%
HR, mean change from control ([3]; 50 pmol/kg/min, 30 min): −12.3 bpm
Mean BP, mean change from control ([3]; 50 pmol/kg/min, 30 min): −9.6 mmHg
Urine Flow, mean change from control ([3]; 50 pmol/kg/min, 30 min): 0.8 mL/h
Blood Flow, mean change from control ([3]; 100 pmol/kg/min, 30 min): -2.9 mL/min
Conductance, mean change from control ([3]; 100 pmol/kg/min, 30 min): 0.2 ml/min/mmHg
Diastolic LVP, mean change from control ([3]; 100 pmol/kg/min, 30 min): −1.2 mmHg
HCT, mean change from control ([3]; 100 pmol/kg/min, 30 min): 0.3%
HR, mean change from control ([3]; 100 pmol/kg/min, 30 min): −40.5 bpm
Mean BP, mean change from control ([3]; 100 pmol/kg/min, 30 min): −26.5 mmHg
Urine Flow, mean change from control ([3]; 100 pmol/kg/min, 30 min): 0.7 mL/h
Blood Flow, mean change from control ([3]; Recovery): -1.0 mL/min
Conductance, mean change from control ([3]; Recovery): 0.5 ml/min/mmHg
Diastolic LVP, mean change from control ([3]; Recovery): 1.9 mmHg
HCT, mean change from control ([3]; Recovery): −1.3%
HR, mean change from control ([3]; Recovery): −41.7 bpm
Mean BP, mean change from control ([3]; Recovery): −14.6 mmHg
Urine Flow, mean change from control ([3]; Recovery): -0.2 mL/h
Blood Flow, Average drug response SED ([3]; average of the two doses): -2.2 ± 0.4 mL/min
Conductance, Average drug response SED ([3]; average of the two doses): −0.1 ± 0.3 ml/min/mmHg
Diastolic LVP, Average drug response SED ([3]; average of the two doses): −1.0±1.0 mmHg
HCT, Average drug response SED ([3]; average of the two doses): 1.1 ± 0.8%
HR, Average drug response SED ([3]; average of the two doses): −26.4 ± 23.0 bpm
Mean BP, Average drug response SED ([3]; average of the two doses): −18.1±6.3 mmHg
Urine Flow, Average drug response SED ([3]; average of the two doses): 0.7 ± 0.3 mL/h
time taken to recover to 50% of the peak response (conscious rabbits; bolus injection of 0.24 mg/kg TNPc or equivalent molar dose of BNP): 80 min

ZSDSKIGNGCFGFPLDRIGSVSGLGCNRIMQNPPKKFSGE ([pGlu]SDSKIGNGCFGFPLDRIGSVSGLGCNRIMQNPPKKFSGE; disulfide 10-26 (inferred); not fully specified; ends not checked) [TNPc Z0]
Mean relaxation SEM of denuded aortic rings expressed as % of KCl response [1]: 61.5 ± 5.5%
recovery of MAP, in words (conscious rabbits): partially recovered
MAP at final dose (conscious rabbits): 63.3 mm Hg
Recovery (MAP) (conscious rabbits): 72.2 mm Hg
Recovery Delta SED (MAP) (conscious rabbits): 9.0 ± 1.0 mm Hg
Treatment Effect, change of mean blood pressure during the infusion (conscious rabbits): −11.0 mm Hg
